Measured values: publication PMC2784364, “VX-166: a novel potent small molecule caspase inhibitor as a potential therapy for sepsis” (Critical Care, 2009)
Peptide text beside a SMILES is read from it. * marks the point of attachment. Cbz = O=C(OCc1ccccc1)*; CH2F = FC*

Columns and labels:
[1] = test system: IL-2 release from peripheral blood mononuclear cells; test: IL-2 release from anti-CD3/CD28 stimulated PBMC; type: cell-based, human; conditions: anti-CD3/CD28 stimulated human PBMC, 24 hours; read-out: IC50, inhibition of IL-2 release
Protocol: PBMC from healthy donors were isolated as described above. To the wells of a 96-well plate previously coated with 1.5 μg/ml anti-hCD3 (Serotec, Kidlington, UK), 5 × 10^5 cells/ml and 1 μg/ml anti-hCD28 (BD Biosciences, Oxford, UK) were added. Plates were then incubated for 24 hours in the presence or absence of VX-166 or the calcineurin inhibitor FK506 (Merck Biosciences Ltd., Nottingham, UK). IL-2 release into the supernatant was subsequently determined by ELISA (R&D Systems, Abingdon, UK) following the manufacturer's instructions.

[2] = test system: IL-2 release from activated T-cells; set-up: method as in PMID 10601363; conditions: 50 μM; cited from earlier work
Jurkat cells = test: Anti-Fas induced apoptosis in Jurkat cells, Annexin V; type: cell-based, human; conditions: Fas-induced apoptosis, readout not specified, data not shown; read-out: IC50 in Fas-assay
Protocol: Jurkat cells were obtained from LGC Standards (Teddington, UK) and were grown in RPMI 1640, 10% FCS, 2 mM L-glutamine, 100 U/ml penicillin and 0.1 mg/ml streptomycin (all from Sigma Aldrich Ltd., Poole, UK) at 37°C in 5% CO2/95% humidity. Receptor- or stress-mediated apoptosis (2 × 10^5 cells/ml) was induced by addition of either anti-Fas antibody CH-11 (10 ng/ml, Millipore UK Ltd., Watford, UK), TNF-α (20 ng/ml, R&D Systems, Abingdon, UK) with cycloheximide (112 ng/ml, Sigma Aldrich Ltd., Poole, UK) or staurosporine (350 ng/ml, Sigma Aldrich Ltd., Poole, UK). VX-166 was diluted into DMSO (10 mM), further diluted in media and added at a range of concentrations. Cells were then incubated for 18 hours. Apoptotic cells were then labelled with Cy5-conjugated Annexin-V (BD Biosciences, Oxford, UK) and detected using a FMAT™ 8100 Fluorimetric Microassay Technology Reader (Applied Biosystems, Warrington, UK). For the experiments using anti-Fas antibody, apoptosis was additionally measured using a Cell Death Detection ELISA kit (Roche Diagnostics Ltd., Lewes, UK) following the manufacturer's instructions.

| Compound | IC50 [1] | block of IL-2 release from activated T-cells [2] | IC50 (Jurkat cells) |
| --- | --- | --- | --- |
| C=CC[C@@H]1/C=C(\C)C[C@H](C)C[C@H](OC)[C@H]2O[C@@](O)(C(=O)C(=O)N3CCCC[C@H]3C(=O)O[C@H](/C(C)=C/[C@@H]3CC[C@@H](O)[C@H](OC)C3)[C@H](C)[C@@H](O)CC1=O)[C@H](C)C[C@@H]2OC [FK506, reference compound] | 0.0002 µM |  |  |
| COC(=O)C[C@H](NC(=O)[C@H](C)NC(=O)[C@@H](NC(=O)OCc1ccccc1)C(C)C)C(=O)CF [zVAD-FMK, reference compound] (Cbz-Val-Ala-Asp(OMe)-CH2F) |  | block IL-2 release | 0.23 µM |
| IETD-FMK |  | block IL-2 release |  |
